Values of other authors, collected in patent US20170002355A1, “cGAP-PNA MULTIVALENT PEPTIDE NUCLEIC ACID LIGAND DISPLAY” (THE USA, AS REPRESENTED BY THE SECRETARY, DEPART- MENT OF …, priority 2014, published 2017).

What was measured:
hA1AR = molecular target: T1, hA1AR (Homo sapiens, UniProt P30542); details: published literature values of XAC (Kecskes et al. 2011)
T1 construct: expressed in transfected cells
T1 sequence (P30542 1-326): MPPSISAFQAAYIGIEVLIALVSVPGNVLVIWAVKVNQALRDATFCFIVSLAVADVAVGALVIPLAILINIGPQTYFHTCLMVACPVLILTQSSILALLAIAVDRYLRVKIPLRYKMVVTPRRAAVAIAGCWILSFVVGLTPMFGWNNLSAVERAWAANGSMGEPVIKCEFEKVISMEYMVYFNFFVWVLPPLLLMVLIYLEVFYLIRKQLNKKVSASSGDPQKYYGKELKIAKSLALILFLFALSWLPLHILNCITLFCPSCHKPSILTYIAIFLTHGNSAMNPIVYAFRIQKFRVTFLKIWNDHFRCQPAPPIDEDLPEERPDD

hA3AR = molecular target: T2, hA3AR (Homo sapiens, UniProt P0DMS8); details: published literature values of XAC (Kecskes et al. 2011)
T2 construct: expressed in transfected cells
T2 sequence (P0DMS8 1-318): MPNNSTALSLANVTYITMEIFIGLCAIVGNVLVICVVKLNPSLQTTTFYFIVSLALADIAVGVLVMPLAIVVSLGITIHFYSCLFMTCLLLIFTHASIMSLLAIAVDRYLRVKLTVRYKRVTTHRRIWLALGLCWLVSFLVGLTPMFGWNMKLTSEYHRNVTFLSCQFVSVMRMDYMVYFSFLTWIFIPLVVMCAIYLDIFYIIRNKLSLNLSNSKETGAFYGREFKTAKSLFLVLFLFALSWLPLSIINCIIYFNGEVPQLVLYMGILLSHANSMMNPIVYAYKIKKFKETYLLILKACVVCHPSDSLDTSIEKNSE

Compound: CCCn1c(=O)c2[nH]c(-c3ccc(OCC(=O)NCCN)cc3)nc2n(CCC)c1=O [XAC, N-(2-aminoethyl)-2-[4-(2,3,6,7-tetrahydro-2,6-dioxo-1,3-dipropyl-1H-purin-8-yl)phenoxy]-acetamide]
- A1:A2A selectivity, literature (hA1AR): 1.4
- A3:A2A selectivity, literature (hA3AR): 2.4
